# Laboratory results published in PubChem BioAssay (NCI).
#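 Assay format: 96-well plates, 48-hour exposure. The concentration for 50% growth inhibition is given as GI50. TGI marks complete inhibition of growth.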
# What was measured:
# Test in all cases: NCI anticancer screen, dose series, 48 h
# [1] = test system: HCT-116 colon
# [2] = test system: SK-MEL-28 melanoma
# [3] = test system: NCI-H522 lung
# [4] = test system: HOP-92 NSCLC
# [5] = test system: 786-0 renal
# [6] = test system: UACC-62 melanoma
# [7] = test system: SW-620 colon
# [8] = test system: MDA-MB-435
# [9] = test system: PC-3 prostate
# [10] = test system: T-47D breast
Compound,TGI [1] [µM],TGI [2] [µM],TGI [3] [µM],TGI [4] [µM],TGI [5] [µM],TGI [6] [µM],TGI [7] [µM],GI50 [1] [µM],GI50 [2] [µM],TGI [8] [µM],GI50 [5] [µM],GI50 [6] [µM],GI50 [9] [µM],TGI [9] [µM],GI50 [7] [µM],GI50 [8] [µM],GI50 [3] [µM],GI50 [4] [µM],GI50 [10] [µM],TGI [10] [µM]
NC(CCCC(N)P(=O)(O)O)P(=O)(O)O (stereo not given),> 100,> 100,> 100,> 100,> 100,> 100,> 100,–,–,–,–,–,–,–,–,–,–,–,–,–
COc1ccc2c(c1)C(=O)CCc1cc(OC)c(OC)c(OC)c1-2,> 100,> 100,–,–,> 100,> 100,> 100,< 0.01,24.8,0.0717,< 0.01,< 0.01,< 0.01,> 100,< 0.01,–,–,–,–,–
CC(C)CNc1nc(-c2ccccc2Cl)nc2ccccc12,30.2,40.7,> 100,35.2,30.4,27.4,–,16.6,20.8,30.8,16.8,14.3,18.5,46.4,–,16.5,25.5,15.6,35.2,> 100
CCC[CH2][Sn]([CH2]CCC)([O]C(=O)CN)[O]C(=O)CN,> 100,> 100,38,> 100,> 100,60.5,37,71.2,29.2,–,33,17.5,–,–,18.1,–,11.6,73.2,–,–
O=C(Oc1ccc[nH]c1=O)c1cc([N+](=O)[O-])cc([N+](=O)[O-])c1,> 100,> 100,> 100,> 100,> 100,> 100,> 100,> 100,> 100,> 100,> 100,20.9,> 100,> 100,99,51.3,> 100,> 100,73.2,> 100
CCCCCCCCCCCCCP(=O)(O)O,> 100,> 100,> 100,> 100,> 100,> 100,> 100,–,–,–,–,–,–,–,–,–,–,–,–,–
O=C(O)c1ccc(CN2CCC(CN[C@@H]3C[C@H]3c3ccccc3)CC2)cc1,> 100,> 100,> 100,> 100,> 100,> 100,> 100,> 100,> 100,> 100,> 100,> 100,> 100,> 100,> 100,> 100,> 100,> 100,> 100,> 100
[N-]=[N+]=NCCCn1c2c(c3ccc([N+](=O)[O-])cc3c1=O)C(=O)c1ccccc1-2,> 100,> 100,> 100,> 100,> 100,> 100,> 100,8.17,> 100,> 100,> 100,29.6,38,> 100,5.26,> 100,70.3,45.1,–,–
Cc1cc(Cl)ccc1OCC(=O)Nc1nc2c(Cl)cccc2s1,–,> 100,> 100,97.5,> 100,> 100,> 100,–,> 100,> 100,26.4,7.41,8.89,> 100,> 100,> 100,46.9,21,> 100,> 100
O=c1[nH]c2ccccc2cc1-c1nc2ccc(Cl)cc2[nH]1,21.4,45.7,> 100,9.29,> 100,> 100,> 100,2.66,6.66,> 100,7.42,2.83,3.71,29.1,4.81,4.39,6.79,1.48,3.33,> 100
N#C/C(=C/c1cccc(Oc2ccccc2)c1)c1ccccc1,> 100,> 100,> 100,> 100,> 100,> 100,> 100,–,–,–,–,–,–,–,–,–,–,–,–,–
COc1cc(Nc2ncccc2C(=O)Nc2nc3ccc(F)cc3s2)cc(OC)c1OC,> 100,> 100,5.1,5.91,> 100,–,–,3.49,4.33,> 100,5.51,–,2.73,> 100,–,2.87,1.54,1.48,2.3,7.86
CCC1=CCN(c2cc(C)ccn2)OC1c1ccc(OC)cc1 (stereo not given),71.8,64.9,52.1,–,> 100,> 100,> 100,–,–,–,–,–,–,–,–,–,–,–,–,–
COc1ccc2c(c1)C(=O)/C(=C/c1cccc(OCC(=O)c3ccccc3)c1)O2,2.96,15.7,3.26,16.1,17.5,27,3.43,1.53,4.76,13.6,4.59,13.4,4.44,17.4,1.77,3.4,1.62,3.86,2.04,4.88
COc1ccc([C@@]2(O)c3c(ccc(O)c3OC)[C@H]2OC)c(OC)c1,> 100,> 100,85.4,> 100,> 100,–,> 100,–,–,–,–,–,–,–,–,–,–,–,–,–
Cc1ccc(S(=O)(=O)N=Nc2c(O)[nH]c3cc(O)c(C(=O)O)cc23)cc1,> 100,> 100,> 100,–,> 100,> 100,> 100,–,–,> 100,–,–,–,> 100,–,–,–,–,–,> 100
CNC(=O)OCc1nc(SSC(C)(C)C)n(C)c1COC(=O)NC,3.26,4.67,2.69,3.67,9.12,5.09,3.67,–,–,16,–,–,–,21,–,–,–,–,–,7.4
CSC(SC)(C(=O)O)c1cc(-c2c(Cl)cccc2Cl)no1,> 100,> 100,80.3,> 100,> 100,> 100,> 100,–,–,> 100,–,–,–,> 100,–,–,–,–,–,> 100
COc1ccc(C=O)cc1O[Si](C)(C)C(C)(C)C,> 100,–,–,> 100,> 100,> 100,> 100,–,–,–,–,–,–,–,–,–,–,–,–,–
O=C(O)CCCc1ccc2ccc3ccccc3c2c1,> 100,> 100,> 100,> 100,> 100,> 100,–,–,–,> 100,–,–,–,> 100,–,–,–,–,–,> 100
COc1ccc2nc3cc(Cl)ccc3c(Sc3ccc([N+](=O)[O-])cc3C)c2c1,> 100,> 100,> 100,> 100,> 100,> 100,> 100,–,–,–,–,–,–,–,–,–,–,–,–,–
O=C(Nc1ccc(C(F)(F)F)cc1[N+](=O)[O-])C(=O)C1NC(=S)NC1=O (stereo not given),> 100,> 100,> 100,> 100,> 100,> 100,> 100,–,–,–,–,–,–,–,–,–,–,–,–,–

Compound,TGI [1] [µM],TGI [2] [µM],TGI [3] [µM],TGI [4] [µM],TGI [5] [µM],TGI [6] [µM],TGI [7] [µM],GI50 [1] [µM],GI50 [2] [µM],TGI [8] [µM],GI50 [5] [µM],GI50 [6] [µM],GI50 [9] [µM],TGI [9] [µM],GI50 [7] [µM],GI50 [8] [µM],GI50 [3] [µM],GI50 [4] [µM],GI50 [10] [µM],TGI [10] [µM]
CC(C)C(O)(C(C)C)C(C)C,> 100,> 100,> 100,> 100,> 100,> 100,–,–,–,> 100,–,–,–,> 100,–,–,–,–,–,> 100
CC(=O)Oc1c(C)c(-c2ccccc2)c(C)c(-c2ccccc2)c1C(=S)c1ccccc1,> 100,> 100,> 100,> 100,> 100,> 100,–,–,–,–,–,–,–,–,–,–,–,–,–,–
C[C@]12CC=CC(=O)[C@@]1(C)CCC(=O)C2,> 100,> 100,> 100,> 100,> 100,> 100,> 100,–,–,–,–,–,–,–,–,–,–,–,–,–
COc1cc(NCC(C#N)C#N)ccc1N=Nc1ccc(Cl)cc1,62.2,80.1,31.9,–,48.8,23.8,41.9,–,–,–,–,–,–,–,–,–,–,–,–,–
COc1cc(NS(=O)(=O)c2ccc(C)cc2)c2nccnc2c1,–,> 100,70.2,> 100,> 100,34.6,> 100,–,–,–,–,–,–,–,–,–,–,–,–,–
CN(C)CCOc1ccc([N+](=O)[O-])c2cccnc12,> 100,> 100,> 100,–,> 100,> 100,> 100,–,–,> 100,–,–,–,> 100,–,–,–,–,–,> 100
COC(=O)C(=O)CC(=O)CCn1[nH]c(=O)c(Cl)c(Cl)c1=O,> 100,> 100,> 100,> 100,> 100,> 100,> 100,–,–,–,–,–,–,–,–,–,–,–,–,–
CC(=O)Oc1cc2c(cc1OC(C)=O)C1(C)CCC2(C)c2cc(OC(C)=O)c(OC(C)=O)cc21,–,> 100,–,38.2,> 100,29.5,63.4,–,–,–,–,–,–,–,–,–,–,–,–,–
O=C1C=C(Nc2ccccc2C(=O)CC(=O)C(=O)Nc2cccc([N+](=O)[O-])c2)c2ccccc2C1=O,> 100,> 100,70.6,> 100,> 100,86.8,87,–,–,–,–,–,–,–,–,–,–,–,–,–
C=C(C)C1CC2(C)C(C)CC(O)CC2C(OC(=O)C=C(C)C)C1O (stereo not given),> 100,> 100,> 100,> 100,> 100,> 100,–,–,–,> 100,–,–,–,> 100,–,–,–,–,–,> 100
O=C1N/C(=C\[N+](=O)[O-])c2ccccc21,> 100,> 100,> 100,> 100,> 100,> 100,> 100,–,–,–,–,–,–,–,–,–,–,–,–,–
CC(=O)c1ccc(NC(=O)/C(CC(=O)c2sc(-c3cccnc3)nc2C)=N/NC(N)=O)cc1,42.5,> 100,> 100,–,83.8,> 100,> 100,–,–,–,–,–,–,–,–,–,–,–,–,–
NC1=NN(c2ccccc2)C(=O)C1C(=O)CCC(=O)Nc1cccc(Cl)c1 (stereo not given),> 100,> 100,> 100,> 100,> 100,> 100,> 100,–,–,–,–,–,–,–,–,–,–,–,–,–
CCCC1(CC(=O)O)OCCc2c1[nH]c1ccccc21 (stereo not given),–,> 100,–,> 100,> 100,> 100,> 100,–,–,–,–,–,–,–,–,–,–,–,–,–
N#CCC(=O)N/N=C1/C(=O)N(c2ccc(Cl)cc2)C(=O)C(=O)C1c1nc2ccccc2s1 (stereo not given),> 100,> 100,> 100,> 100,> 100,> 100,> 100,–,–,–,–,–,–,–,–,–,–,–,–,–
CCN(CC)CCNC(Cc1ccccc1)c1ccc(OCc2ccccc2)cc1 (stereo not given),25.5,4.03,22.7,–,17.9,3.89,20,4.25,1.85,11,3.61,1.92,3.68,15.7,5.53,3.16,10.2,–,–,–
O=C(Nc1ccc(Cl)cc1)C1C(=O)C(=O)N(c2ccc(Cl)cc2)C1=O (stereo not given),> 100,> 100,> 100,69.3,> 100,> 100,> 100,–,–,–,–,–,–,–,–,–,–,–,–,–
C[C@]12CCc3sc(Nc4ccc(OC(F)(F)F)cc4)nc3C1=CC[C@@H]1[C@@H]2CC[C@]2(C)C(=O)CC[C@@H]12,–,7.98,4.56,3.44,3.28,10.3,5,–,1.88,10.1,1.45,3.03,–,–,2.21,2.72,2.14,1.43,2.15,6.43
CCCCCCCCCCCC(=O)OCCOCCOCCOCCOCCOC(=O)CCCCCCCCCCC,> 100,> 100,> 100,> 100,> 100,> 100,> 100,–,–,–,–,–,–,–,–,–,–,–,–,–
COc1ccc(NC(=O)CC/C(CC(=O)c2ccco2)=N/NC(=O)C(N)=O)cc1,–,> 100,> 100,–,> 100,> 100,> 100,–,–,–,–,–,–,–,–,–,–,–,–,–
C=CC[P@]1(=O)O[C@H](c2ccccc2)[C@H](C)N1C,–,> 100,–,–,> 100,> 100,> 100,–,–,–,–,–,–,–,–,–,–,–,–,–
